Data set [1] in a line: Solubility in aqueous systems. It is filed as physicochemical.
Data set [2] can be described thus: Blood levels after oral gavage. Also on record: species or system adult rats. The following applies: rat, in vivo. The text has this:
In the treatment of certain localized conditions, the degree of hydrophilicity of the CMT can be of lesser importance. […].

Data set [3] can be described thus: Testing in cancer patients (side effects). The data set is classed as in vivo.
A short description of a further data set: Toxicity in vivo. The following applies: 2.0 µg/ml concentration.
Data set [4] relates to Penicillium sp. (laboratory isolate). The data set is described as follows: SABHI agar plate growth inhibition screen. The data set is classed as cell-based. The note with it: for Activity against Penicillium sp. (Example 1): 25 µg/ml SABHI agar; for Growth at 25 µg/ml compared to control at 24 hrs incubation / Growth at 25µg/ml compared to control at 48 hours: Penicillium Sp., 30°C, growth grade. The procedure: (§1) The following fungi were inoculated onto potato dextrose agar (PDA) from stock cultures and incubated aerobically at 30°C: Aspergillus [NT] 1022, Penicillium sp. (laboratory isolate), Candida albicans, ATCC 14053, and Rhizopus sp. […] Candida albicans was suspended in saline and adjusted to 0.5 MacFarland in a similar manner. These suspensions were diluted 1:100 in sterile 0.9% saline. SABHI Agar (Difco) pH 7.0 was prepared in 100ml amounts and sterilized at 121°C for 15 min. […] The plates were then incubated aerobically for 24 hour and for 48 hours at 30°C.

The subject of a further data set is Rhizopus sp. The data set is described as follows: SABHI agar plate growth inhibition screen. It is filed as cell-based. The note with it: for Growth at 25 µg/ml compared to control at 24 hrs incubation / Growth at 25µg/ml compared to control at 48 hours: Rhizopus sp., 30°C, growth grade. The method, then:
as §1

For data set [5], the system named is Candida albicans, ATCC 14053. The data set is described as follows: SABHI agar plate growth inhibition screen. The data set is classed as cell-based. The note with it: for Growth at 25 µg/ml compared to control at 24 hrs incubation / Growth at 25µg/ml compared to control at 48 hours: Candida Albicans, 30°C, growth grade; for Activity against Candida albicans (Example 1): 25 µg/ml SABHI agar. The procedure:
as §1

Data set [6] relates to Aspergillus fumigatus ATCC 1022. Kind of data set: SABHI agar plate growth inhibition screen. The note with it: for Activity against Aspergillus fumigatus (Example 1): 25 µg/ml SABHI agar; for Growth at 25 µg/ml compared to control at 24 hrs incubation / Growth at 25µg/ml compared to control at 48 hours: Aspergillus Fumigatus, 30°C, growth grade. The data set is classed as cell-based. The procedure: as §1

For `CN(C)C1C(=O)C(C#N)=C(O)C2(O)C(=O)C3=C(O)c4c(O)cccc4C(C)(O)C3CC12` (stereo not drawn) [CMT-2, tetracyclinonitrile], the “Solubility in aqueous systems” value in data set [1] is “low solubility in aqueous systems”. In addition, the Blood levels result in data set [2] is given as “no detectable blood levels”.

With `NC(=O)C1=C(O)C[C@@H]2C[C@@H]3Cc4cccc(O)c4C(=O)C3=C(O)[C@]2(O)C1=O` [CMT-3, 6-demethyl-6-deoxy-4-de(dimethylamino)tetracycline], in data set [3], the Side effects entry is “without evidence of side effects, except at unusually high doses”. Further, the Toxicity in vivo result in “Toxicity in vivo” is “very little toxicity”.

For the compound `CC1(O)c2c(Cl)ccc(O)c2C(=O)C2=C(O)C3(O)C(=O)C(C(N)=O)=C(O)CC3CC21` (stereo not drawn) [CMT-4, 7-chloro-4-de(dimethylamino)tetracycline], the “Activity against Penicillium sp. (Example 1)” value in data set [4] was “demonstrated activity”. Also, the “Growth at 25 µg/ml compared to control at 24 hrs incubation” value (shortened to “Growth at 25 µg/ml compared to control”) was 3 (25% reduction in growth of colonies compared to control.) in data set [4], 4 (Level of growth in the absence of anti-fungal agent (control).) in the data set with Rhizopus sp., 1 (75% reduction in growth in colonies compared to control.) in data set [5] and 0 (complete inhibition of growth.) in data set [6]. In addition, the “Growth at 25µg/ml compared to control at 48 hours” value in data set [4] is given as 0 (complete inhibition of growth.); in the data set with Rhizopus sp. it was 4 (Level of growth in the absence of anti-fungal agent (control).); in data set [5], 4 (Level of growth in the absence of anti-fungal agent (control).); in data set [6] it was 1 (75% reduction in growth in colonies compared to control.). Also, in data set [6], the “Activity against Aspergillus fumigatus (Example 1)” value was “demonstrated activity”.

Regarding `CC1(O)c2cccc(O)c2C(=O)C2=C(O)C3C(=O)C(C(N)=O)=C(O)CC3CC21` (stereo not drawn) [CMT-7, 4-de(dimethylamino)-12α-deoxytetracycline], the “Growth at 25 µg/ml compared to control” value in data set [4] is 3 (25% reduction in growth of colonies compared to control.); with Rhizopus sp. it was 4 (Level of growth in the absence of anti-fungal agent (control).); in data set [5], 0 (complete inhibition of growth.); in data set [6], 0 (complete inhibition of growth.). In addition, the “Growth at 25µg/ml compared to control at 48 hours” value is on record as 4 (Level of growth in the absence of anti-fungal agent (control).) in data set [4], 3 (25% reduction in growth of colonies compared to control.) in the data set on Rhizopus sp., 0 (complete inhibition of growth.) in data set [5] and 4 (Level of growth in the absence of anti-fungal agent (control).) in data set [6]. The “Activity against Candida albicans (Example 1)” value in data set [5] is on record as “strong activity”.

In the case of `NC(=O)C1=C(O)C[C@@H]2C[C@@H]3Cc4ccc(N)c(O)c4C(=O)C3=C(O)[C@]2(O)C1=O` [CMT-308], in data set [4], the “Activity against Penicillium sp. (Example 1)” value was “demonstrated activity”, the “Growth at 25 µg/ml compared to control” value is recorded as 0 (complete inhibition of growth.) and the “Growth at 25µg/ml compared to control at 48 hours” value was 0 (complete inhibition of growth.). For the same compound, in the data set on Rhizopus sp., the “Growth at 25 µg/ml compared to control” value is listed as 4 (Level of growth in the absence of anti-fungal agent (control).) and the “Growth at 25µg/ml compared to control at 48 hours” value is recorded as 4 (Level of growth in the absence of anti-fungal agent (control).). In addition, in data set [5], the “Growth at 25 µg/ml compared to control” value is 4 (Level of growth in the absence of anti-fungal agent (control).) and the “Growth at 25µg/ml compared to control at 48 hours” value was 4 (Level of growth in the absence of anti-fungal agent (control).). For the same compound, in data set [6], the “Activity against Aspergillus fumigatus (Example 1)” value was “demonstrated activity”, the “Growth at 25 µg/ml compared to control” value is 0 (complete inhibition of growth.) and the “Growth at 25µg/ml compared to control at 48 hours” value is 1 (75% reduction in growth in colonies compared to control.).

For the compound `O=C(NCN1CCNCC1)C1=C(O)C[C@@H]2C[C@@H]3Cc4cccc(O)c4C(=O)C3=C(O)[C@]2(O)C1=O` [CMT-315], in data set [4], the “Activity against Penicillium sp. (Example 1)” value is “activity against all the fungi tested”, the “Growth at 25 µg/ml compared to control” value was 0 (complete inhibition of growth.) and the “Growth at 25µg/ml compared to control at 48 hours” value is recorded as 0 (complete inhibition of growth.). Moreover, in the data set with Rhizopus sp. (25 µg/ml SABHI agar), the “Activity against Rhizopus sp. (Example 1)” value is recorded as “activity against all the fungi tested”. Further, in the data set with Rhizopus sp., the “Growth at 25 µg/ml compared to control” value is 1 (75% reduction in growth in colonies compared to control.) and the “Growth at 25µg/ml compared to control at 48 hours” value was 1 (75% reduction in growth in colonies compared to control.). Also, in data set [5], the “Activity against Candida albicans (Example 1)” value is given as “activity against all the fungi tested”, the “Growth at 25 µg/ml compared to control” value is given as 0 (complete inhibition of growth.) and the “Growth at 25µg/ml compared to control at 48 hours” value is recorded as 0 (complete inhibition of growth.). Besides, in data set [6], the “Activity against Aspergillus fumigatus (Example 1)” value was “activity against all the fungi tested”, the “Growth at 25 µg/ml compared to control” value is listed as 0 (complete inhibition of growth.) and the “Growth at 25µg/ml compared to control at 48 hours” value was 0 (complete inhibition of growth.).

These data come from EP1296703B1, “NON-ANTIBACTERIAL TETRACYCLINE AS ANTI-FUNGAL AGENTS” (Liu, Yu, priority 2000, dated 2001).
